# Data: patent US10765114B2, “4-amino-6-(pyridyl and 2-substitutedphenyl)-picolinates and 6-amino-2-(pyridyl and 2-substitutedphenyl)-pyrimidine-4-carboxylates and their use as herbicides” (Dow AgroSciences LLC, priority 2013, dated 2020)
# How the values were obtained:
# Experiment in all cases: Post-Emergent Test III (Wheat and Barley)
# [1] = system: APESV (windgrass); format: in vivo, Apera spica-venti
# Procedure: Seeds of the desired test plant species were planted in Sun Gro MetroMix® 306 planting mixture, which typically has a pH of 6.0 to 6.8 and an organic matter content of about 30 percent, in plastic pots with a surface area of 103.2 square centimeters (cm^2). When required to ensure good germination and healthy plants, a fungicide treatment and/or other chemical or physical treatment was applied. The plants were grown for 7-36 days in a greenhouse with an approximate 14 h photoperiod which was maintained at about 18° C. during the day and 17° C. during the night. Nutrients and water were added on a regular basis and supplemental lighting was provided with overhead metal halide 1000-Watt lamps as necessary. The plants were employed for testing when they reached the second or third true leaf stage.
# A weighed amount, determined by the highest rate to be tested, of each test compound was placed in a 25 mL glass vial and was dissolved in 4 mL of a 97:3 v/v mixture of acetone and DMSO to obtain concentrated stock solutions. […] The concentrated stock solutions obtained were diluted with 20 mL of an aqueous mixture containing acetone, water, isopropyl alcohol, DMSO, Agri-Dex crop oil concentrate, and X-77 surfactant in a 48:39:10:1.5:1.5:0.02 v/v ratio to obtain spray solutions containing the highest application rates. Additional application rates were obtained by serial dilution of 12 mL of the high rate solution into a solution containing 2 mL of 97:3 v/v mixture of acetone and DMSO and 10 mL of an aqueous mixture containing acetone, water, isopropyl alcohol, DMSO, Agri-Dex crop oil concentrate, and X-77 surfactant in a 48:39:10:1.5:1.5:0.02 v/v ratio to obtain ½×, ¼×, ⅛× and 1/16× rates of the high rate. Compound requirements are based upon a 12 mL application volume at a rate of 187 liters per hectare (L/ha). Formulated compounds were applied to the plant material with an overhead Mandel track sprayer equipped with 8002E nozzles calibrated to deliver 187 L/ha over an application area of 0.503 square meters at a spray height of 18 inches (43 cm) above the average plant canopy height. Control plants were sprayed in the same manner with the solvent blank.
# The treated plants and control plants were placed in a greenhouse as described above and watered by subirrigation to prevent wash-off of the test compounds. After 21 dAYS, the condition of the test plants as compared with that of the untreated plants was determined visually and scored on a scale of 0 to 100 percent where 0 corresponds to no injury and 100 corresponds to complete kill and presented as indicated in Table A.
# By applying the well-accepted probit analysis as described by J. Berkson in Journal of the American Statistical Society, 48, 565 (1953) and by D. Finney in “Probit Analysis” Cambridge University Press (1952), herbicidal injury of a specific compound at various rates can be used to calculate GR10, GR20, GR50, GR80 and GR90 values, which are defined as growth reduction factors that correspond to the effective dose of herbicide required to provide plant growth reduction (GR) of 10 percent, 20 percent, 50 percent, 80 percent and 90 percent, respectively. Probit analysis was applied to data collected from multiple dose rates of individual compounds utilizing the procedures explained in the following examples. The analysis of those dose rates is captured in the following tables.
# [2] = system: KCHSC (kochia); format: in vivo, Kochia scoparia
# In short: (§1)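 Greenhouse plants (~14 h photoperiod, 18/17 °C) at second-third true leaf stage were track-sprayed at 187 L/ha with acetone/DMSO-based spray containing Agri-Dex crop oil and X-77. Rates ran from the high rate down to 1/16×. Injury was scored visually after 21 days (0-100%); GR values came from probit analysis.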
# [3] = system: HORSS; format: in vivo
# In short: as §1
# [4] = system: TRZSS; format: in vivo
# In short: as §1
# [5] = system: LAMPU (purple deadnettle); format: in vivo, Lamium purpureum; settings: for Visual Growth Reduction (%) 21 Days After Application, LAMPU: postemergence
# In short: as §1
# [6] = system: PAPRH (common poppy); format: in vivo, Papaver rhoeas; settings: for Visual Growth Reduction (%) 21 Days After Application, PAPRH: postemergence
# In short: as §1
# [7] = system: POLCO (wild buckwheat); format: in vivo, Polygonum convolvulus; settings: for Visual Growth Reduction (%) 21 Days After Application, POLCO: postemergence
# In short: as §1
# [8] = system: SASKR (Russian thistle); format: in vivo, Salsola tragus; settings: for Visual Growth Reduction (%) 21 Days After Application, SASKR: postemergence
# In short: as §1
# [9] = system: VERPE (Persian speedwell); format: in vivo, Veronica persica; settings: for Visual Growth Reduction (%) 21 Days After Application, VERPE: postemergence
# In short: as §1
# [10] = effective dose for growth reduction of 50 percent, probit analysis
# [11] = effective dose for growth reduction of 80 percent, probit analysis
# [12] = effective dose for growth reduction of 90 percent, probit analysis
# [13] = effective dose for growth reduction of 10 percent, probit analysis
# [14] = effective dose for growth reduction of 20 percent, probit analysis
smiles,measurement,setting,value
COC(=O)c1nc(-c2ccc(Cl)c(F)c2C)cc(N)c1Cl [Compound 73],pest or weed control at 35 g/ha,"[1]; Apera spica-venti, post-emergence, 504 h, 35 g ai/ha, postemergence, read-out: Visual Growth Reduction (%) 21 Days After Application, APESV",45 to 59%
same,pest or weed control at 70 g/ha,"[1]; Apera spica-venti, post-emergence, 504 h, 70 g ai/ha, postemergence, read-out: Visual Growth Reduction (%) 21 Days After Application, APESV",60 to 74%
same,pest or weed control at 140 g/ha,"[1]; Apera spica-venti, post-emergence, 504 h, 140 g ai/ha, postemergence, read-out: Visual Growth Reduction (%) 21 Days After Application, APESV",85 to 94%
same,"GR50, APESV",[1]; [10],32 g ai/ha
same,"GR80, APESV",[1]; [11],90 g ai/ha
same,"GR90, APESV",[1]; [12],>140 g ai/ha
same,pest or weed control at 35 g/ha,"[2]; Bassia scoparia, post-emergence, 504 h, 35 g ai/ha, postemergence, read-out: Visual Growth Reduction (%) 21 Days After Application, KCHSC",85 to 94%
same,pest or weed control at 70 g/ha,"[2]; Bassia scoparia, post-emergence, 504 h, 70 g ai/ha, postemergence, read-out: Visual Growth Reduction (%) 21 Days After Application, KCHSC",95 to 100%
same,pest or weed control at 140 g/ha,"[2]; Bassia scoparia, post-emergence, 504 h, 140 g ai/ha, postemergence, read-out: Visual Growth Reduction (%) 21 Days After Application, KCHSC",95 to 100%
same,"GR50, KCHSC",[2]; [10],8 g ai/ha
same,"GR80, KCHSC",[2]; [11],21 g ai/ha
same,"GR90, KCHSC",[2]; [12],35 g ai/ha
same,pest or weed control at 35 g/ha,"[3]; Hordeum vulgare, post-emergence, 504 h, 35 g ai/ha, postemergence, read-out: Visual Growth Reduction (%) 21 Days After Application, HORSS",60 to 74%
same,pest or weed control at 70 g/ha,"[3]; Hordeum vulgare, post-emergence, 504 h, 70 g ai/ha, postemergence, read-out: Visual Growth Reduction (%) 21 Days After Application, HORSS",60 to 74%
same,pest or weed control at 140 g/ha,"[3]; Hordeum vulgare, post-emergence, 504 h, 140 g ai/ha, postemergence, read-out: Visual Growth Reduction (%) 21 Days After Application, HORSS",75 to 84%
same,"GR10, HORSS",[3]; [13],2 g ai/ha
same,"GR20, HORSS",[3]; [14],5 g ai/ha
same,pest or weed control at 35 g/ha,"[4]; Triticum aestivum, post-emergence, 504 h, 35 g ai/ha, postemergence, read-out: Visual Growth Reduction (%) 21 Days After Application, TRZSS",60 to 74%
same,pest or weed control at 70 g/ha,"[4]; Triticum aestivum, post-emergence, 504 h, 70 g ai/ha, postemergence, read-out: Visual Growth Reduction (%) 21 Days After Application, TRZSS",60 to 74%
same,pest or weed control at 140 g/ha,"[4]; Triticum aestivum, post-emergence, 504 h, 140 g ai/ha, postemergence, read-out: Visual Growth Reduction (%) 21 Days After Application, TRZSS",75 to 84%
same,"GR10, TRZSS",[4]; [13],3 g ai/ha
same,"GR20, TRZSS",[4]; [14],6 g ai/ha
same,"Visual Growth Reduction (%) 21 Days After Application, LAMPU",[5]; 35 g ai/ha,A (95-100)
same,"Visual Growth Reduction (%) 21 Days After Application, LAMPU",[5]; 70 g ai/ha,A (95-100)
same,"Visual Growth Reduction (%) 21 Days After Application, LAMPU",[5]; 140 g ai/ha,A (95-100)
same,"GR50, LAMPU",[5]; [10],<17.5 g ai/ha
same,"GR80, LAMPU",[5]; [11],<17.5 g ai/ha
same,"GR90, LAMPU",[5]; [12],<17.5 g ai/ha
same,"Visual Growth Reduction (%) 21 Days After Application, PAPRH",[6]; 35 g ai/ha,D (60-74)
same,"Visual Growth Reduction (%) 21 Days After Application, PAPRH",[6]; 70 g ai/ha,D (60-74)
same,"Visual Growth Reduction (%) 21 Days After Application, PAPRH",[6]; 140 g ai/ha,A (95-100)
same,"GR50, PAPRH",[6]; [10],15 g ai/ha
same,"GR80, PAPRH",[6]; [11],48 g ai/ha
same,"GR90, PAPRH",[6]; [12],90 g ai/ha
same,"Visual Growth Reduction (%) 21 Days After Application, POLCO",[7]; 35 g ai/ha,A (95-100)
same,"Visual Growth Reduction (%) 21 Days After Application, POLCO",[7]; 70 g ai/ha,A (95-100)
same,"Visual Growth Reduction (%) 21 Days After Application, POLCO",[7]; 140 g ai/ha,A (95-100)
same,"GR50, POLCO",[7]; [10],7 g ai/ha
same,"GR80, POLCO",[7]; [11],10 g ai/ha
same,"GR90, POLCO",[7]; [12],12 g ai/ha
same,"Visual Growth Reduction (%) 21 Days After Application, SASKR",[8]; 35 g ai/ha,C (75-84)
same,"Visual Growth Reduction (%) 21 Days After Application, SASKR",[8]; 70 g ai/ha,C (75-84)
same,"Visual Growth Reduction (%) 21 Days After Application, SASKR",[8]; 140 g ai/ha,C (75-84)
same,"GR50, SASKR",[8]; [10],1 g ai/ha
same,"GR80, SASKR",[8]; [11],84 g ai/ha
same,"GR90, SASKR",[8]; [12],>140 g ai/ha
same,"Visual Growth Reduction (%) 21 Days After Application, VERPE",[9]; 35 g ai/ha,G (0-29)
same,"Visual Growth Reduction (%) 21 Days After Application, VERPE",[9]; 70 g ai/ha,G (0-29)
same,"Visual Growth Reduction (%) 21 Days After Application, VERPE",[9]; 140 g ai/ha,F (30-44)
same,"GR50, VERPE",[9]; [10],>140 g ai/ha
same,"GR80, VERPE",[9]; [11],>140 g ai/ha
same,"GR90, VERPE",[9]; [12],>140 g ai/ha
